Where “and” joins values, the source holds several entries; their conditions need not be identical. Identical values can stand only once.
Legend:
[1] = Pharmacokinetic study for PTG-630 (IV and PO): plasma, whole blood, tissues, urine; format: in vivo, Sprague Dawley rats; conditions: for PTG-4997 (metabolite) concentration: Table 2, for PTG-4997 (metabolite) after PTG-630 PO 100 mg/kg
Procedure: The samples were analyzed in two batches with standards and QCs prepared on rat plasma and rat urine. Analyst® 1.6 (SCIEX) software was used for statistical analysis of bioanalytical data. […] Dose samples collected at 0.083 h-6 h postdose were diluted 4 times with SD rat plasma prior to plating. Twenty-four (24) hours plasma samples were assayed without dilution. […] Two sciatic nerve samples were excluded from analysis, due to the insufficient sample size. […] The 12 non-cannulated animals were arbitrarily assigned to groups upon arrival and housed together throughout the experiment. The animals were acclimated to their designated housing for at least 24 hours before the first day of dosing. […] Blood samples were collected via cannula from IV dosed rats or by cardiac stick from PO dosed rats at the specified time points for sampling pharmacokinetics. Blood was collected into K2EDTA tubes. Tubes were mixed gently after blood collection, chilled and centrifuged at 3000 rpm, 4° C. within 30 minutes upon collection. The samples were centrifuged at 4° C. and the resultant plasma separated. […] Urine from Group 1 was collected via polycarbonate tubes from rats placed in drug metabolism cages. Urine was maintained and room temperature through the collection period.

CYP3A = format: in vitro ADME, human; conditions: HLM
Excerpt: Compound 5 (PTG-630 free base) and 7 additional compounds for CYP3A P450 inhibition.
Imidazole (and benzimidazole) containing drugs are ubiquitous in pharmacological practice; however, drug-drug interactions (DDI) have been observed with some imidazole-containing classes, such as the antifungal azoles typified by ketoconazole. It is believed that the imidazole moiety accounts for their ability to inhibit CYP3A, the major DDI enzyme that metabolizes up to 50% of common drugs. The compounds of the disclosure incorporate an imidazole moiety attached to a pyridine ring via the imidazole C-2. They all share an imidazo-hydroxypyridine theme that can bind redox metal ions, while differing in the nature of the X side-chain. The potential of the compounds of the disclosure for DDI was evaluated by screening their inhibition of CYP3A.
Two studies were conducted in human liver microsomes (HLM). Lead candidate PTG-630 was tested using the Eurofins G232 panel (Drug Metab Dispos. 2001 January; 29(1):23-9), where inhibition was measured against seven CYP enzymes; CYP3A4 was tested using two different substrates, midazolam and testosterone. In a second study, inhibition of CYP3A4 (midazolam substrate only) was compared for 8 compounds of interest. The test protocol involved one-point measurements in duplicate, where inhibition was measured at a fixed 10 μM concentration of candidate inhibitors. In all cases, the substrate for each CYP enzyme was at a concentration equal to its specific Km value that was independently obtained from an 8-point dose-response study. Based on the observed value for percent inhibition for each test compound, we calculated of an IC50 assuming a competitive mode of inhibition. If percent inhibition for an inhibitor at a concentration of [I] is denoted by P, then: IC50=[I]*(100−P)/P In the single-point assay, [I] is 10 μM. If measured inhibition is 10%, then IC50=10*(100-10)/10=90 μM. […] As discussed in Lin et al. (J Pharm Sci. 2007 September; 96(9):2485-93; doi: 10.1002/jps.20884), CYP inhibition is broadly interpreted as being “potent” if IC50<1 μM, “moderate” if 1 μM<IC50<10 μM, and “weak” if IC50>10 μM.

Cc1ncc(CO)c(-c2ncc[nH]2)c1O [PTG-4997]
PTG-4997 (metabolite) concentration ([1]; muscle, 2 h postdose, Mean): <BLQ | PTG-4997 (metabolite) concentration ([1]; muscle, 2 h postdose, individual animals): <BLQ | PTG-4997 (metabolite) concentration ([1]; muscle, 4 h postdose, Mean): 54 ng/mL | PTG-4997 (metabolite) concentration ([1]; muscle, 4 h postdose, individual animals, 100 mg/kg): 108 ng/mL and <BLQ | PTG-4997 (metabolite) concentration ([1]; muscle, 6 h postdose, Mean): 127.5 ng/mL | PTG-4997 (metabolite) concentration ([1]; muscle, 6 h postdose, individual animals, 100 mg/kg): 108 ng/mL and 147 ng/mL | PTG-4997 (metabolite) concentration ([1]; muscle, 24 h postdose, Mean): <BLQ | PTG-4997 (metabolite) concentration ([1]; muscle, 24 h postdose, individual animals): <BLQ | PTG-4997 (metabolite) concentration ([1]; plasma, 0.5 h postdose, Mean): <BLQ | PTG-4997 (metabolite) concentration ([1]; plasma, 0.5 h postdose, individual animals): <BLQ | PTG-4997 (metabolite) concentration ([1]; plasma, 1 h postdose, Mean): <BLQ | PTG-4997 (metabolite) concentration ([1]; plasma, 1 h postdose, individual animals): <BLQ | PTG-4997 (metabolite) concentration ([1]; plasma, 2 h postdose, Mean): <BLQ | PTG-4997 (metabolite) concentration ([1]; plasma, 2 h postdose, individual animals): <BLQ | PTG-4997 (metabolite) concentration ([1]; plasma, 4 h postdose, Mean): <BLQ | PTG-4997 (metabolite) concentration ([1]; plasma, 4 h postdose, individual animals): <BLQ | PTG-4997 (metabolite) concentration ([1]; plasma, 6 h postdose, Mean): <BLQ | PTG-4997 (metabolite) concentration ([1]; plasma, 6 h postdose, individual animals): <BLQ | PTG-4997 (metabolite) concentration ([1]; plasma, 24 h postdose, Mean): <BLQ | PTG-4997 (metabolite) concentration ([1]; plasma, 24 h postdose, individual animals): <BLQ | PTG-4997 (metabolite) concentration ([1]; sciatic nerve, 0.5 h postdose, Mean): <BLQ | PTG-4997 (metabolite) concentration ([1]; sciatic nerve, 0.5 h postdose, individual animals): <BLQ | PTG-4997 (metabolite) concentration ([1]; sciatic nerve, 1 h postdose, Mean): <BLQ | PTG-4997 (metabolite) concentration ([1]; sciatic nerve, 1 h postdose, individual animals): <BLQ | PTG-4997 (metabolite) concentration ([1]; sciatic nerve, 2 h postdose, Mean): <BLQ | PTG-4997 (metabolite) concentration ([1]; sciatic nerve, 2 h postdose, individual animals): <BLQ | PTG-4997 (metabolite) concentration ([1]; sciatic nerve, 4 h postdose, Mean): <BLQ | PTG-4997 (metabolite) concentration ([1]; sciatic nerve, 4 h postdose, individual animals): <BLQ | PTG-4997 (metabolite) concentration ([1]; sciatic nerve, 6 h postdose, Mean): <BLQ | PTG-4997 (metabolite) concentration ([1]; sciatic nerve, 6 h postdose, individual animals): <BLQ | PTG-4997 (metabolite) concentration ([1]; sciatic nerve, 24 h postdose, Mean): <BLQ | PTG-4997 (metabolite) concentration ([1]; sciatic nerve, 24 h postdose, individual animals): <BLQ | AUC last in kidney, times lower than PTG-630 in kidneys ([1]; after PTG-630 PO): 3 times | detection in plasma following IV dosing ([1]; metabolite PTG-4997 after PTG-630 IV): only detected in the plasma of single animal | presence in kidney ([1]; metabolite PTG-4997 after PTG-630 PO): present in steady level for 24 hours | presence in muscle samples ([1]; metabolite PTG-4997 after PTG-630 PO, 4-6 hours postdose): intermittently present | detection in plasma following PO administration ([1]; metabolite PTG-4997 after PTG-630 PO, any timepoint): not detectable | presence in liver samples ([1]; metabolite PTG-4997 after PTG-630 PO, any timepoint through 24 hours postdose): undetectable | average amount recovered from each animal ([1]; urine, 24 hours, after PTG-630 IV): 146 ng | excretion rate, times lower than PTG-630 ([1]; urine, after PTG-630 IV): 34 times | Estimated IC50 (CYP3A; midazolam, from one-point % inhibition at 10 μM, IC50=[I]*(100−P)/P): — None | P % inhib (CYP3A; substrate midazolam at Km, Inhib Conc. 1.0E−05 M): −4.9%

Source: patent publication US12139472B2, “Inhibitors of advanced glycation end products” (priority 2019, dated 2024)
